Measured values published in patent US20210403924A1, “Method for selecting cells based on CRISPR/Cas-mediated integration of a detectable tag to a target protein” (Hoffmann-La Roche Inc., priority 2018, published 2021).
Where a name gives a salt, the structure may show the parent alone.

How the values were obtained:
HEK293A wild-type cells = test: CellTiter-Glo cell viability assay, titration of antibiotic concentrations (killing curve); type: cell-based, human; details: HEK293A wild-type cells
Protocol: (§1) HEK293A wild-type cells were treated for 72 h with various concentrations of the antibiotics (a) hygromycin B and (b) puromycin, respectively. Cell viability was determined with the CellTiter-Glo assay.
(§2) The CellTiter-Glo assay was used to determine the number of viable cells in a sample. The method is based on the quantification of the ATP amount as an indicator of metabolically active cells. The CellTiter-Glo Luminescent Cell Viability Assay Kit from Promega was used for the experiments. The CellTiter-Glo reagent was freshly prepared before each experiment. For this purpose, the substrate, which contains inter alia luciferin and a luciferase, was dissolved in the accompanying buffer. After direct addition to the medium of the cells, lysis of the cells occurs first. Viable cells produce ATP in their mitochondria, which is thereby released. In the presence of ATP, the luciferin is converted by the UltraGlo r-luciferase. This produces a stable luminescence signal which is proportional to the amount of ATP present and thus to the number of viable cells.
(§3) The assay was used to optimize transfection and to titrate the optimal antibiotic concentrations of hygromycin B and puromycin for post-transfection selection. In all assays, cells were seeded in a black flat bottom 96-well plate with a transparent bottom. When titrating the antibiotic concentrations, 7,500 cells were seeded per well. The next day, the cells were treated with various concentrations of the antibiotic. After […], the viability of the cells was determined by the assay in which 100 μL of the CellTiter-Glo reagent was added to each well. Subsequently, the plate was shaken on a plate shaker for 2 min. at 200 rpm. After incubation in the dark for 10 minutes, the luminescence signal was measured on the luminometer.

[1] = as above; type: cell-based, human; details: human
Protocol: as §1, §2, §3

Structure (SMILES)	cell viability (HEK293A wild-type cells; 20 μg/mL, 72 h)	cell viability expected at selection concentration (HEK293A wild-type cells; 50 μg/mL)	viability at 72 h, 2 μg/mL ([1]; cell viability)	viability at 72 h, 2 μg/mL ([1]; cell viability expected at selection concentration)
CN[C@H]1C[C@@H](N)[C@H](O)[C@@H](O[C@@H]2O[C@H](CO)[C@H](O)[C@@H]3OC4(O[C@H]23)O[C@H]([C@@H](N)CO)[C@H](O)[C@H](O)[C@H]4O)[C@@H]1O (stereo partly shown) [hygromycin B, Hygromycin B]	less than 20%	about 12%	–	–
COc1ccc(C[C@H](N)C(=O)N[C@H]2[C@@H](O)[C@H](n3cnc4c(N(C)C)ncnc43)O[C@@H]2CO)cc1 [puromycin, Puromycin dihydrochloride]	–	–	< 15%	~12%
